The target of one data set is T1, OATP1B3 (Homo sapiens, UniProt Q9NPD5).
T1 sequence (Q9NPD5 whole entry): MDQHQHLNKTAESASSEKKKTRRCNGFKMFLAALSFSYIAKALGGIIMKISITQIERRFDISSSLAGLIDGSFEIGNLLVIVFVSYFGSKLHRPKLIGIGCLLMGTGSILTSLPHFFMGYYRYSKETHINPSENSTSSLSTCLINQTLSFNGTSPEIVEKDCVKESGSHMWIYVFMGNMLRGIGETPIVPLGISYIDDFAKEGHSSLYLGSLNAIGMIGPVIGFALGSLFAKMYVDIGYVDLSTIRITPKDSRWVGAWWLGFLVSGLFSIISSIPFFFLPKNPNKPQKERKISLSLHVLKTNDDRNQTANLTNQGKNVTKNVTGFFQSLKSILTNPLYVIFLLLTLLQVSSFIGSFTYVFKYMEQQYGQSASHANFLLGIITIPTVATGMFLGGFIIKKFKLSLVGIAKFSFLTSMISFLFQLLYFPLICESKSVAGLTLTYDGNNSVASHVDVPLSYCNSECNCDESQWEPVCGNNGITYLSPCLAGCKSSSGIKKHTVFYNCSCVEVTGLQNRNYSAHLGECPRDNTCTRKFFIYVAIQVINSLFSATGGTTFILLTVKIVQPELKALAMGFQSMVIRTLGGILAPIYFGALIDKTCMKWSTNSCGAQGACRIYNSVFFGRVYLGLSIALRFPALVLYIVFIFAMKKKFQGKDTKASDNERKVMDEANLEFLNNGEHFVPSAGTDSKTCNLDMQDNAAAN
As to the kind of experiment: Inhibition of human OATP1B3 assessed as reduction in OATP1B3-mediated E217betaG transport at 14900 uM relative to control. The following applies: not told, probe E217betaG.

Data set [1] can be described thus: Reduction of propionyl-CoA in human hepatocytes derived from propionic acidemia patient at 30 uM pretreated for 30 mins followed by 13C-isoleucine addition and measured after 1 hr by MS/MS analysis relative to control. Type of data set: functional, Hepatocyte. The arrangement: scale not given: the % may be the effect or the level left. The following applies: time 90 min, 1.5 h.

Data set [2] in a line: Drug metabolism in human hepatocytes derived from propionic acidemia patient assessed as formation of 2,2-dimethylbutanoic acid-CoA pretreated for 30 mins followed by 13C-isoleucine addition and measured after 1 hr by MS/MS analysis relative to control. Format: ADME, cell-based. To be noted: Hepatocyte.
Data set [3] is described as follows: Reduction of methylmalonyl-CoA in human hepatocytes derived from methylmalonic acidemia at 30 uM pretreated for 30 mins followed by 13C-isoleucine addition and measured after 1 hr by MS/MS analysis relative to control. Format: functional, Hepatocyte. Also noted: scale not given: the % may be the effect or the level left. To be noted: time 90 min, 1.5 h.
Data set [4] is described as follows: Stability in rat hepatocytes assessed as unchanged compound at 50 uM measured after 4 hrs. Type of data set: ADME, cell-based, Hepatocyte. The following applies: read-out: Stabilty.
The nature of data set [5]: Half life in CD1 mouse at 300 mg/kg, po. To be noted: in vivo. Format: ADME, organism-based.
Data set [6] in a line: Tmax in Sprague-Dawley rat at 200 mg/kg, po. The following applies: in vivo. Format: ADME, organism-based.
Data set [7] concerns the target T2, Multidrug and toxin extrusion protein 1 (Homo sapiens, UniProt Q96FL8).
T2 sequence (Q96FL8 whole entry): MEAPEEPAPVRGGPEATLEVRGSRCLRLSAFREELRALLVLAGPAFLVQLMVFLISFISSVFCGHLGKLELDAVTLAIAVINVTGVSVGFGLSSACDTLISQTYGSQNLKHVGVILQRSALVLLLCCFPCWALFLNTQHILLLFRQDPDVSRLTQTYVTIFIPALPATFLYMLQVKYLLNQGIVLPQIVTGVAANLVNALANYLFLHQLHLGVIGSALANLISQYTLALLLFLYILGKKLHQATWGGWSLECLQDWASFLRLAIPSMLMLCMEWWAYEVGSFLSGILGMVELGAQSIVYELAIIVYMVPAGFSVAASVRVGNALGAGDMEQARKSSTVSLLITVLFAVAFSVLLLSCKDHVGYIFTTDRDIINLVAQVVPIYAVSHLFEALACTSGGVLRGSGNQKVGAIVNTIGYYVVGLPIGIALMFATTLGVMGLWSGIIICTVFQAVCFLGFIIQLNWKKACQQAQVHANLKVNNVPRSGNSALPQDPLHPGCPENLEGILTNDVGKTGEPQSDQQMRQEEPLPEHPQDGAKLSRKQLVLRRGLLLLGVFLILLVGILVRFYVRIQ
As to the kind of experiment: Inhibition of human MATE1 assessed as reduction in MATE1-mediated metformin transport at 14900 uM relative to control.

The nature of data set [8]: Reduction of propionyl carnitine in human hepatocytes derived from methylmalonic acidemia patient pretreated for 30 mins followed by 13C-isoleucine addition and measured after 1 hr by MS/MS analysis. The following applies: hepatocyte. Format: functional, cell-based.
A short description of data set [9]: AUC (0 to infinity) in CD1 mouse at 100 mg/kg, po. Also noted: route oral, time infinity, dose 100 mg/kg. To be noted: in vivo. Format: ADME, organism-based.
Data set [10] is described as follows: Drug level in Gottingen minipig blood at 10 mg/kg, po using radiolabeled compound measured after 72 hrs by quantitative whole-body autoradiography. Type of data set: ADME, organism-based, Sus scrofa domesticus. The following applies: pig, in vivo, BLD = below limit of detection.
Data set [11] is described as follows: Drug metabolism in rat hepatocytes assessed as beta-oxidation by measuring phase1 metabolite formation at 50 uM measured after 4 hrs. Format: ADME, cell-based, Hepatocyte.
The nature of data set [12]: Half life in Sprague-Dawley rat at 50 mg/kg, po. To be noted: in vivo. Format: ADME, organism-based.
Data set [13] is described as follows: Ratio of drug level in erythrocyte to plasma in human. Type of data set: ADME. To be noted: erythrocytes and plasma.
The nature of data set [14]: Cmax in Sprague-Dawley rat at 200 mg/kg, po. The following applies: in vivo. Format: ADME, organism-based. Also noted: route oral, dose 200 mg/kg.
A short description of data set [15]: Half life in Sprague-Dawley rat blood at 10 mg/kg, po by quantitative whole-body autoradiography. Type of data set: ADME, organism-based. To be noted: in vivo.
A further data set addresses T3, OAT1 (Homo sapiens, UniProt Q4U2R8).
T3 sequence (Q4U2R8 whole entry): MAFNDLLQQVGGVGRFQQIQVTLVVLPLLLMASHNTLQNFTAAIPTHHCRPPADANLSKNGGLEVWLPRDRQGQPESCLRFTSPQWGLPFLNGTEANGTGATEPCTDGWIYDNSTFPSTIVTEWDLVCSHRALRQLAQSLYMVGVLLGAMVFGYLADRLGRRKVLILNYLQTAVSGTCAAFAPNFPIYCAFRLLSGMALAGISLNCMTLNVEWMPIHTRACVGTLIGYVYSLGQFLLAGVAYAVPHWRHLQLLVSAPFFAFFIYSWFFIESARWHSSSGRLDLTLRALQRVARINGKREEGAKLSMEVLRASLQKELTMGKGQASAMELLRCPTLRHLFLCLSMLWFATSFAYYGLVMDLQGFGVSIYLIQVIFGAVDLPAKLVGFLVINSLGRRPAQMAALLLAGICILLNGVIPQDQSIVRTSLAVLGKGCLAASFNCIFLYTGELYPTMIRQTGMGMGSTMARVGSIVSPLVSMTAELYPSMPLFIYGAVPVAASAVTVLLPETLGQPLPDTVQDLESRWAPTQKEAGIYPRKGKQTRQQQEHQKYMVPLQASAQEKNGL
Nature of the data set: Inhibition of human OAT1 assessed as reduction in OAT1-mediated tenofovir transport at 14900 uM relative to control. To be noted: not told, probe tenofovir.

A short description of data set [16]: Oral bioavailability in CD1 mouse at 100 mg/kg. Format: ADME, organism-based. The following applies: in vivo.
The nature of data set [17]: Tmax in CD1 mouse at 30 mg/kg, iv. Type of data set: ADME, organism-based. To be noted: in vivo.
Data set [18] in a line: Drug metabolism in human hepatocytes assessed as formation of 2,2-dimethylbutanoic acid-CoA incubated for 1 hrs by MS/MS analysis. Format: ADME, cell-based. To be noted: Hepatocyte.

From ChEMBL document CHEMBL4808180, “Identification of 2,2-Dimethylbutanoic Acid (HST5040), a Clinical Development Candidate for the Treatment of Propionic Acidemia and Methylmalonic Acidemia” (J Med Chem, 2021) come the findings set out here.

Usually inhibition stands for how much of the control response was suppressed. Usually EC50 stands for the concentration needed to bring the measured effect to its halfway point. By half-life is commonly meant how long it takes for the measured level to halve. For orientation: Tmax means the time at which the peak concentration occurs. As usually defined, the AUC(0-inf) is total exposure, with the tail of the curve extrapolated. Broadly, the Kp is the ratio of the level in a tissue or fluid to that in plasma or blood. The term Cmax denotes the peak of the concentration-time curve. For orientation: bioavailability means dose-corrected exposure relative to a reference, in per cent.

On to `CCC(C)(C)C(=O)O` [DIMEBUTIC ACID], for which the values for the inhibition at 14900 µM on OATP1B3 and at OAT1 were 31.5% and 83.2%, respectively. For the same compound, the values for the Activity in data set [1] and in data set [3] were -78.8% and -55%, respectively. The figures for the EC50 in data set [2], in [8] and in data set [18] were 3000 nM, 1400 nM and 5.9 µM, respectively. Moreover, the remaining at 4 h, 50 µM in data set [4] was 86%. For the same compound, the half-life in [5] is 115 min; in data set [12], 196 min. For the same compound, the values for the time to peak (Tmax) in data set [6] and in [17] were 25 min and 7.5 min, respectively. Also, in [7], the “inhibition (INH)” value was “Not Active”. The same compound gave an AUC(0-inf) in data set [9] of 219 µg·h/mL. Besides, the Drug uptake entry in data set [10] is reported as “Bld”. For the same compound, in data set [11], the Drug metabolism entry is listed as “Metabolite_Notdetected”. For the same compound, the Kp in [13] is 0.343. In [14], this compound showed a Cmax of 113 µg/mL. Also, the t1/2 in data set [15] turned out to be 2.5 h. The compound further had a bioavailability in data set [16] of 93.3%.
